The text below walks through data of ChEMBL document CHEMBL5131569, “SAGE-718: A First-in-Class N-Methyl-d-Aspartate Receptor Positive Allosteric Modulator for the Potential Treatment of Cognitive Impairment” (J Med Chem, 2022).

As usually defined, the EC50 is the concentration at which the effect is half-maximal. Usually Emax stands for the greatest response seen or fitted, relative to the assay's reference. A word on the CL/F: it is the apparent clearance, not corrected for the fraction that reaches the circulation. As usually defined, the half-life is the time in which the quantity being followed falls by half. The logD is the decadic logarithm of the distribution of all forms, ionised or not, between an organic phase and buffer at a given pH. Read a high logD as a more lipophilic compound. In general, Kp refers to tissue or fluid exposure divided by exposure in the circulation. One may read the clearance as a measure of how efficiently the substance is removed, as volume per time. A higher clearance goes with a high capacity for elimination. The term solubility denotes how much of the substance goes into solution per volume. Low values mean a poorly soluble substance, high ones a readily soluble substance.

≈ marks a conversion by molar mass, not a printed value. Where only a bound is given, the exact number is not on record here.

Data set [1] concerns the target T1, Glutamate NMDA receptor; GRIN1/GRIN2B (Homo sapiens, UniProt Q05586+Q13224). Description: Positive allosteric modulation of recombinant human GluN1/GluN2B receptor stably expressed in HEK293 cells assessed as increase in glycine/L-glutamate-induced channel current at -70 mV holding potential by whole cell patch clamp method. The data set is classed as cell-based. In general terms: In patch-clamp work, channel activity is measured electrically.

Data set [2] deals with T2, Glutamate NMDA receptor; GRIN1/GRIN2A (Homo sapiens, UniProt Q05586+Q12879). Kind of data set: Positive allosteric modulation of recombinant human GluN1/GluN2A receptor stably expressed in HEK293 cells assessed as increase in glycine/L-glutamate-induced channel current at -70 mV holding potential by whole cell patch clamp method. The data set is classed as cell-based.

Data set [3] has as its target T1, Glutamate NMDA receptor; GRIN1/GRIN2B. Kind of data set: Positive allosteric modulation of recombinant human GluN1/GluN2B receptor stably expressed in HEK293 cells assessed as increase in glycine/L-glutamate-induced channel current at -70 mV holding potential by whole cell patch clamp method relative to control. Format: cell-based. The settings on record: filed as positive allosteric modulator.

The target of data set [4] is T2, Glutamate NMDA receptor; GRIN1/GRIN2A. Kind of data set: Positive allosteric modulation of recombinant human GluN1/GluN2A receptor stably expressed in HEK293 cells assessed as increase in glycine/L-glutamate-induced channel current at -70 mV holding potential by whole cell patch clamp method relative to control. Format: cell-based. The settings on record: filed as positive allosteric modulator.

The nature of data set [5]: Clearance in po dosed rat. Format: ADME, organism-based. To be noted: in vivo.
Data set [6] can be described thus: Oral bioavailability in rat. The data set is classed as ADME, organism-based. To be noted: in vivo.
Data set [7] is described as follows: Half life in po dosed rat. The data set is classed as ADME, organism-based. To be noted: in vivo.
Data set [8] in a line: Metabolic stability in mouse liver microsomes assessed as intrinsic clearance at 10 uM preincubated for 5 mins followed by NADPH addition and measured upto 65 mins by LC-MS/MS analysis. The data set is classed as ADME, Microsome. To be noted: time < 70 min, read-out: CLH. For orientation: Microsomes from liver hold many membrane-bound enzymes, among them those of drug oxidation.

A short description of data set [9]: Lipophilicity, logD of compound in MeOH at 20 uM by HPLC analysis. Format: physicochemical.
Data set [10] can be described thus: Metabolic stability in human liver microsomes assessed as intrinsic clearance at 10 uM preincubated for 5 mins followed by NADPH addition and measured upto 65 mins by LC-MS/MS analysis. Format: ADME, Microsome. The settings on record: time < 70 min, read-out: CLH.
The nature of data set [11]: Ratio of drug concentration in ip dosed CD-1 mouse brain to plasma after 1 hr by LC-MS/MS analysis. The data set is classed as ADME, organism-based. To be noted: brain and plasma.
Data set [12] in a line: Oral bioavailability in Sprague-Dawley rat by LC-MS/MS analysis. To be noted: in vivo. Format: ADME, organism-based.
The nature of data set [13]: Clearance in Sprague-Dawley rat by LC-MS/MS analysis. The data set is classed as ADME. The settings on record: in vivo.
The nature of data set [14]: Metabolic stability in rat liver microsomes assessed as intrinsic clearance at 10 uM preincubated for 5 mins followed by NADPH addition and measured upto 65 mins by LC-MS/MS analysis. The data set is classed as ADME, Microsome. The settings on record: time < 70 min, read-out: CLH.
A short description of data set [15]: Clearance in CD-1 mouse by LC-MS/MS analysis. The data set is classed as ADME. To be noted: in vivo.
Data set [16] in a line: Clearance in Beagle dog by LC-MS/MS analysis. The data set is classed as ADME, Canis lupus familiaris. To be noted: in vivo.
Data set [17] can be described thus: Aqueous solubility of compound in PBS incubated for 1 hr under shaking condition by HPLC-MS/MS analysis. The data set is classed as physicochemical.
Data set [18] in a line: Oral bioavailability in CD-1 mouse by LC-MS/MS analysis. The data set is classed as ADME, organism-based. The settings on record: in vivo.
A short description of data set [19]: Metabolic stability in dog liver microsomes assessed as intrinsic clearance at 10 uM preincubated for 5 mins followed by NADPH addition and measured upto 65 mins by LC-MS/MS analysis. The data set is classed as ADME, Canis lupus familiaris, Microsome. The settings on record: time < 70 min, read-out: CLH.
Data set [20] is described as follows: Oral bioavailability in Beagle dog by LC-MS/MS analysis. Format: ADME, organism-based, Canis lupus familiaris. To be noted: in vivo.

Take `C[C@H](CC[C@](C)(O)C(F)(F)F)[C@H]1CC[C@H]2[C@@H]3CC=C4C[C@](C)(O)CC[C@]4(C)[C@H]3CC[C@]12C`: the EC50 in data set [1] was 1500 nM; in [2], 2200 nM.

Turning to `C#C[C@@](C)(O)CC[C@@H](C)[C@H]1CC[C@H]2[C@@H]3CC=C4C[C@@](C)(O)CC[C@]4(C)[C@H]3CC[C@]12C`, the results for the EC50 in [1] and in data set [2] were 1100 nM and greater than 10000 nM, respectively. Further, the Emax in [3] turned out to be 56%.

Take `C[C@H](CC[C@](C)(O)C(F)(F)F)[C@H]1CC[C@H]2[C@@H]3CC[C@H]4C[C@@](C)(O)CC[C@]4(C)[C@H]3CC[C@]12C`: the EC50 was 110 nM in data set [1] and 180 nM in [2]. In addition, the figures for the Emax in [4] and in [3] were 150% and 100%, respectively.

With `CC(C)[C@@H](O)CC[C@@H](C)[C@H]1CC[C@H]2[C@@H]3CC=C4C[C@@H](O)CC[C@]4(C)[C@H]3CC[C@]12C`, the CL/F in data set [5] is 91.7 mL/min/kg. Besides, the bioavailability in [6] was less than 10%. The half-life in data set [7] is less than 0.6 h.

In the case of `C[C@H](CC[C@@](C)(O)C(F)(F)F)[C@H]1CC[C@H]2[C@@H]3CC=C4C[C@@](C)(O)CC[C@]4(C)[C@H]3CC[C@]12C`, the EC50 in data set [1] amounted to 180 nM; in data set [2] it was 310 nM.

With `CC(C)[C@](C)(O)CC[C@@H](C)[C@H]1CC[C@H]2[C@@H]3CC=C4C[C@@](C)(O)CC[C@]4(C)[C@H]3CC[C@]12C`, the figures for the EC50 in data set [1] and in [2] were 81 nM and 120 nM, respectively. In addition, the Emax in [4] is 170%; in data set [3], 150%.

`CC[C@](C)(O)CC[C@@H](C)[C@H]1CC[C@H]2[C@@H]3CC=C4C[C@@](C)(O)CC[C@]4(C)[C@H]3CC[C@]12C`: the microsomal CLint at 10 µM in data set [8] came to 8.4 µL/min/mg; in data set [10], 0.14 µL/min/mg; in data set [14] it was 2.7 µL/min/mg. Further, the logD at 20 µM in data set [9] came out at 6.5. In addition, the Kp at 1 h in data set [11] is 0.2. The EC50 was determined as 100 nM in data set [1] and 55 nM in [2]. Further, the bioavailability in data set [12] amounted to 89%. The clearance in data set [13] was 36.7 mL/min/kg. The Emax in data set [4] stood at 170%; in data set [3], 120%.

`CCCC[C@@](C)(O)CC[C@@H](C)[C@H]1CC[C@H]2[C@@H]3CC=C4C[C@@](C)(O)CC[C@]4(C)[C@H]3CC[C@]12C`: the figures for the EC50 in data set [1] and in data set [2] were 190 nM and 160 nM, respectively. Further, the Emax stood at 190% in data set [4] and 170% in data set [3].

As to `C[C@H](CCC(C)(C)O)[C@H]1CC[C@H]2[C@@H]3CC=C4C[C@@](C)(O)CC[C@]4(C)[C@H]3CC[C@]12C`, the microsomal CLint at 10 µM stood at 42 µL/min/mg in [8], 13 µL/min/mg in data set [10], 35 µL/min/mg in [14] and 16 µL/min/mg in [19]. Also, the logD at 20 µM in data set [9] was found to be 5. The clearance was 18.3 mL/min/kg in data set [15], 3.33 mL/min/kg in [16] and 30 mL/min/kg in data set [13]. In addition, in [11], the Kp at 1 h was 0.6. In addition, the CL/F in [5] was 18.3 mL/min/kg. Further, the values for the bioavailability in data set [12], in data set [18] and in [20] were 23%, 53% and 17%, respectively. In addition, the solubility at 1 h in data set [17] turned out to be 0.62 µM (≈ 0.25 µg/mL). This molecule gave a half-life in data set [7] of 1.7 h.

On to `CCCC[C@](C)(O)CC[C@@H](C)[C@H]1CC[C@H]2[C@@H]3CC=C4C[C@@](C)(O)CC[C@]4(C)[C@H]3CC[C@]12C`, for which the EC50 in data set [1] was 450 nM; in data set [2] it was 100 nM. The Emax in [4] and in data set [3] was 170% throughout.

In the case of `COCC[C@@](C)(O)CC[C@@H](C)[C@H]1CC[C@H]2[C@@H]3CC=C4C[C@@](C)(O)CC[C@]4(C)[C@H]3CC[C@]12C`, the EC50 in data set [1] came to 590 nM; in [2], 220 nM. Moreover, the results for the Emax in [4] and in data set [3] were 87% and 130%, respectively.

Consider `C[C@H](CC[C@](C)(O)CCO)[C@H]1CC[C@H]2[C@@H]3CC=C4C[C@@](C)(O)CC[C@]4(C)[C@H]3CC[C@]12C`, for which the EC50 in [1] and in data set [2] was greater than 10000 nM throughout.

Consider `CC[C@@](C)(O)CC[C@@H](C)[C@H]1CC[C@H]2[C@@H]3CC=C4C[C@@](C)(O)CC[C@]4(C)[C@H]3CC[C@]12C`, for which the EC50 in [1] was 300 nM; in data set [2] it was 150 nM. Also, the Emax in data set [4] turned out to be 280%; in data set [3], 190%.

In the case of `C[C@H](CC[C@](C)(O)C1CC1)[C@H]1CC[C@H]2[C@@H]3CC=C4C[C@@](C)(O)CC[C@]4(C)[C@H]3CC[C@]12C`, the EC50 was found to be 60 nM in data set [1] and 420 nM in data set [2]. Further, the Emax in data set [4] and in data set [3] was 130% in each case.

Regarding `C#C[C@](C)(O)CC[C@@H](C)[C@H]1CC[C@H]2[C@@H]3CC=C4C[C@@](C)(O)CC[C@]4(C)[C@H]3CC[C@]12C`, the EC50 in data set [1] and in [2] was greater than 10000 nM each time.

In turn, `C[C@H](CC[C@@H](O)C(F)(F)F)[C@H]1CC[C@H]2[C@@H]3CC=C4C[C@@](C)(O)CC[C@]4(C)[C@H]3CC[C@]12C` had a CL/F in data set [5] of 33.3 mL/min/kg. For the same molecule, in [6], the bioavailability amounted to 18%. In addition, in data set [7], the half-life is 5.75 h.

Regarding `C[C@H](CC[C@](C)(O)C(F)(F)F)[C@H]1CC[C@H]2[C@@H]3CC[C@@H]4C[C@@](C)(O)CC[C@]4(C)[C@H]3CC[C@]12C`, the EC50 in data set [1] and in [2] was greater than 10000 nM in each case.

`C[C@H](CC[C@@](C)(O)CCO)[C@H]1CC[C@H]2[C@@H]3CC=C4C[C@@](C)(O)CC[C@]4(C)[C@H]3CC[C@]12C`: the EC50 in data set [1] and in data set [2] was greater than 10000 nM throughout.

As to `C[C@H](CC[C@@](C)(O)C1CC1)[C@H]1CC[C@H]2[C@@H]3CC=C4C[C@@](C)(O)CC[C@]4(C)[C@H]3CC[C@]12C`, the EC50 in data set [1] stood at 49 nM; in data set [2] it was 74 nM. Further, the Emax is 180% in [4] and 140% in data set [3].

`CC(C)[C@@](C)(O)CC[C@@H](C)[C@H]1CC[C@H]2[C@@H]3CC=C4C[C@@](C)(O)CC[C@]4(C)[C@H]3CC[C@]12C`: the microsomal CLint at 10 µM in data set [8] is 31 µL/min/mg; in data set [10], 6.8 µL/min/mg. Further, in data set [9], the logD at 20 µM came to 6.7. The Kp at 1 h in data set [11] turned out to be 0.2. Also, the results for the EC50 in data set [1] and in data set [2] were 23 nM and 60 nM, respectively. Also, the bioavailability in data set [12] worked out at 116%. This molecule also gave a clearance in [13] of 31.7 mL/min/kg. In addition, the Emax was 260% in [4] and 220% in data set [3].

As to `C[C@H](CC[C@](C)(O)C(F)(F)F)[C@H]1CC[C@H]2[C@@H]3CC=C4C[C@@](C)(O)CC[C@@H]4[C@H]3CC[C@]12C`, the results for the EC50 in data set [1] and in data set [2] were 250 nM and 93 nM, respectively. The figures for the Emax in [4] and in data set [3] were 50% and 52%, respectively.
